How the values were obtained:
[1] = target: T1, CFTR ΔF508 mutant (Homo sapiens, UniProt P13569, DEL508-508); test: YFP-halide influx assay for the CFTR-ΔF508 mutation (CFBE41o- cells); format: cell-based; conditions: forskolin 10.67 μM; for EC50: from (1−F/F0) vs concentration plot
T1 construct: expressed in transfected cells; host or cells: CFBE41o- cells, adenoviral transduction
In short: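 EC50 derived from plotting 1−F/F0 (fluorescence 36 s after iodide injection over pre-injection value) against compound concentration. Cells: CFBE41o- transduced with ΔF508-CFTR and YFP quench reporter, corrected 24 h at 27° C or by a CFTR modulator at 37° C.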

[2] = target: T2, CFTR G551D mutant (Homo sapiens, UniProt P13569, G551D); test: YFP-halide influx assay for the CFTR-G551D mutation (HEK293 cells); format: cell-based; conditions: forskolin 10.67 μM
T2 construct: expressed in transfected cells; host or cells: HEK293 cells, reverse transfection with plasmids
In short: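 Channel opening read as I⁻-driven quenching of a YFP H148Q/I152L/F47L reporter over 7 s post-injection, expressed as 1−F/F0 and fitted against concentration for EC50. Cells were HEK293 co-transfected at seeding with G551D CFTR plus reporter, then grown 24 h at 37 °C, 5% CO2.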

T2 sequence (P13569 whole entry G551D): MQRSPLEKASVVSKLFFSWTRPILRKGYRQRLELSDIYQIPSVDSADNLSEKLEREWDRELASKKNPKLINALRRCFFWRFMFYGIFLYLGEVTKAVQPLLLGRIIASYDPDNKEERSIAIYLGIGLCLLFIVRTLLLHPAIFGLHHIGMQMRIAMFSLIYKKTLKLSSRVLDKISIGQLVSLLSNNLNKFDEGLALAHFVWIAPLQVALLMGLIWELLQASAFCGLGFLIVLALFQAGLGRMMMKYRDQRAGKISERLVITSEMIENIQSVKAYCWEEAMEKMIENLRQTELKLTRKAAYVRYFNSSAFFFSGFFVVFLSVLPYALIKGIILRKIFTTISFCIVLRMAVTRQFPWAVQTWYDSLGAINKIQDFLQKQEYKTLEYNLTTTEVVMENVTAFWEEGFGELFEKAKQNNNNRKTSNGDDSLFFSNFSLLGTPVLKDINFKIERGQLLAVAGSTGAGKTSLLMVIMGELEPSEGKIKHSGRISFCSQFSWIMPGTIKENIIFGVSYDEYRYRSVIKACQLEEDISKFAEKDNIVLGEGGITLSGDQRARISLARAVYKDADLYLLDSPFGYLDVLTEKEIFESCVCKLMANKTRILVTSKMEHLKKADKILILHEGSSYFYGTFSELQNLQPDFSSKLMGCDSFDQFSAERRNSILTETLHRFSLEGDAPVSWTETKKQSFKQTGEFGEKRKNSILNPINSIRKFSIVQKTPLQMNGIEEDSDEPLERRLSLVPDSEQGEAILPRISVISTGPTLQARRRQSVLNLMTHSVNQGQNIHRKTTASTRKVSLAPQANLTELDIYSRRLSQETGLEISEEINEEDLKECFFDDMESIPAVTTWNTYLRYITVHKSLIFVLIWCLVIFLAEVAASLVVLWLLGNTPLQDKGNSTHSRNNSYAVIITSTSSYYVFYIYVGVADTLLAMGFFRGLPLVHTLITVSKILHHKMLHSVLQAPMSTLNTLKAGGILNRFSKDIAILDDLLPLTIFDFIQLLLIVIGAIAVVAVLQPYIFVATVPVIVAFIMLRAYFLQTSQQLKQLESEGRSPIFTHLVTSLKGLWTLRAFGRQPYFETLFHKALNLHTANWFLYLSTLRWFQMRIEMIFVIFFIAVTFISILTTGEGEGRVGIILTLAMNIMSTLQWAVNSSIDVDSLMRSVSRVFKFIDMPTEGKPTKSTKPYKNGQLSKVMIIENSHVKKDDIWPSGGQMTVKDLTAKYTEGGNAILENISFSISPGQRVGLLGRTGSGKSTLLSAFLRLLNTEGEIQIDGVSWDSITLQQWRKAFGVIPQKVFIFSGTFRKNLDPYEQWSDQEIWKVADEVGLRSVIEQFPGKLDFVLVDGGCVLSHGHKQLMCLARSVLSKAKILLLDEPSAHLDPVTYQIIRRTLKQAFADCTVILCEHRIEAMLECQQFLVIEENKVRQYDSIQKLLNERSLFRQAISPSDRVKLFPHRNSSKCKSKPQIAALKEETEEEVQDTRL
T1 sequence (P13569 with tags, fused parts or gaps DEL508-508): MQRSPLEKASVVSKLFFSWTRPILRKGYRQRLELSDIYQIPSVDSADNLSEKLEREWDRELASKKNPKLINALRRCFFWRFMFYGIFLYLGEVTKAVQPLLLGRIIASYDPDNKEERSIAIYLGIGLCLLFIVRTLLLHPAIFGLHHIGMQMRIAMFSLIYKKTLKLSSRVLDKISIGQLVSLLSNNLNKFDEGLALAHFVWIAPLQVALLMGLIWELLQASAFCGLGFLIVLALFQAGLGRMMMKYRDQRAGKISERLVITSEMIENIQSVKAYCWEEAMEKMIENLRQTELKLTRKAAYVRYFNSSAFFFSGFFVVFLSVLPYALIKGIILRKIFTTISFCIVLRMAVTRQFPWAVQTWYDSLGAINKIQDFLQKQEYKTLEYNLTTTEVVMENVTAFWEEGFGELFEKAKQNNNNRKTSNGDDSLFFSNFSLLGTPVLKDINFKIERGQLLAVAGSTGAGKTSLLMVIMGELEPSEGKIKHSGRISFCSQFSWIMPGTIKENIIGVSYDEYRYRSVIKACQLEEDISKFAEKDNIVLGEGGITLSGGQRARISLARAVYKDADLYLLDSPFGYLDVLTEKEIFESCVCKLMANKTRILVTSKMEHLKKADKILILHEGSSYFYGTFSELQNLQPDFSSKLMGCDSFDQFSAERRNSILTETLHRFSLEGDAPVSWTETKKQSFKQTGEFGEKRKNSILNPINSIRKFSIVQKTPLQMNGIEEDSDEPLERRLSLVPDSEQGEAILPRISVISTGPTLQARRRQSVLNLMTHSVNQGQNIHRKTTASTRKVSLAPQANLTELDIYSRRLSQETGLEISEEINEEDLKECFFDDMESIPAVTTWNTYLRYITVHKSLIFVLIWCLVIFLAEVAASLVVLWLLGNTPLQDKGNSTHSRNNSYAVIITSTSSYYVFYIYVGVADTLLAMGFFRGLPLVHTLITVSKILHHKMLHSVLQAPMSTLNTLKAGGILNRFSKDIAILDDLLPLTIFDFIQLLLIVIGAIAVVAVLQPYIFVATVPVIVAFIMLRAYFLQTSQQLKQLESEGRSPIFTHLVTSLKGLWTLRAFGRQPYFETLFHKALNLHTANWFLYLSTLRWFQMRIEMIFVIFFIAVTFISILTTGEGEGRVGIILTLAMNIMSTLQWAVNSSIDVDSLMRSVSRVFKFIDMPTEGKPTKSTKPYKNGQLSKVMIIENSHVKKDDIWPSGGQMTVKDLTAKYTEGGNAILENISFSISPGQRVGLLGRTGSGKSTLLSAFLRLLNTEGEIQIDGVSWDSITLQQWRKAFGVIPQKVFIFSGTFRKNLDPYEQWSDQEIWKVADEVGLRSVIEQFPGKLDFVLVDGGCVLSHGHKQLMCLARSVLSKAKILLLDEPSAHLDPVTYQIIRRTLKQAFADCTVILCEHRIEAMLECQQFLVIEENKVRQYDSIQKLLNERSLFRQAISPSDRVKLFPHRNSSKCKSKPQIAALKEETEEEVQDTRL

Row | SMILES | % Activation [1] | EC50 [1] | % Activation [2] | EC50 [2]
1 | Nc1cc(S(=O)(=O)c2ccc(F)cc2)cnc1C(=O)NCC(O)C(F)(F)F (stereo not drawn) [Compound 27, 3-amino-5-[(4-fluorophenyl)sulfonyl]-N-(3,3,3-trifluoro-2-hydroxypropyl)pyridine-2-carboxamide] | 101.0% | 10.1 nM | 55.0% | 1240 nM
2 | CN(Cc1ccc(C(F)(F)F)cc1)S(=O)(=O)c1cnc(C(=O)NCC(O)C(F)(F)F)c(N)c1 (stereo not drawn) [Compound 211, 3-amino-5-{methyl[4-(trifluoromethyl)benzyl]sulfamoyl}-N-(3,3,3-trifluoro-2-hydroxypropyl)pyridine-2-carboxamide] | 98.4% | 24.7 nM | 24.0% | 
3 | CC(C)CC(O)CNC(=O)c1ncc(S(=O)(=O)c2ccc(OC(F)(F)F)cc2)cc1N (stereo not drawn) [Compound 87, 3-amino-N-(2-hydroxy-4-methylpentyl)-5-{[4-(trifluoromethoxy)phenyl]sulfonyl}pyridine-2-carboxamide] | 102.0% | 11.9 nM | 67.5% | 997 nM
4 | COCCN(C)S(=O)(=O)c1cnc(C(=O)NC[C@H](C)O)c(N)c1 [Compound 277, 3-amino-N-[(2S)-2-hydroxypropyl]-5-[(2-methoxyethyl)(methyl)sulfamoyl]pyridine-2-carboxamide] | 65.5% | > 667 nM | 0.8% | > 10000 nM
5 | COCCC(C)(O)CNC(=O)c1ncc(S(=O)(=O)c2ccc(C(F)(F)F)cc2F)cc1N (stereo not drawn) [Compound 163, 3-amino-5-{[2-fluoro-4-(trifluoromethyl)phenyl]sulfonyl}-N-(2-hydroxy-4-methoxy-2-methylbutyl)pyridine-2-carboxamide] | 97.0% | 22.6 nM | 71.9% | 2300 nM
6 | Nc1cc(S(=O)(=O)c2ccc(OC(F)(F)F)cc2)cnc1C(=O)N1CCC(O)C1 (stereo not drawn) [Compound 4, (3-amino-5-{[4-(trifluoromethoxy)phenyl]sulfonyl}pyridin-2-yl)(3-hydroxypyrrolidin-1-yl)methanone] | 92.1% | 206 nM | 43.6% | 5770 nM
7 | Nc1cc(S(=O)(=O)c2ccc(OC(F)(F)F)cc2)cnc1C(=O)NCC1(O)CCOCC1 [Compound 29, 3-amino-N-[(4-hydroxytetrahydro-2H-pyran-4-yl)methyl]-5-{[4-(trifluoromethoxy)phenyl]sulfonyl}pyridine-2-carboxamide] | 94.1% | 54.6 nM | 58.7% | 1500 nM
8 | CC(C)[C@@H](CO)NC(=O)c1ncc(S(=O)(=O)c2ccc(OC(F)(F)F)cc2)cc1N [Compound 148, 3-amino-N-[(2S)-1-hydroxy-3-methylbutan-2-yl]-5-{[4-(trifluoromethoxy)phenyl]sulfonyl}pyridine-2-carboxamide] | 88.8% | 42.5 nM | 60.2% | 510 nM
9 | Nc1cc(S(=O)(=O)N2CCOCC2)cnc1C(=O)NCC(O)C(F)(F)F (stereo not drawn) [Compound 139, 3-amino-5-(morpholin-4-ylsulfonyl)-N-(3,3,3-trifluoro-2-hydroxypropyl)pyridine-2-carboxamide] | 96.6% | 61.2 nM | 40.6% | 5770 nM
10 | COc1ccc(S(=O)(=O)c2cnc(C(=O)NCC(O)C(F)(F)F)c(N)c2)cc1 (stereo not drawn) [Compound 220, 3-amino-5-[(4-methoxyphenyl)sulfonyl]-N-(3,3,3-trifluoro-2-hydroxypropyl)pyridine-2-carboxamide] | 102.0% | 16.9 nM | 71.6% | 791 nM
11 | Nc1cc(S(=O)(=O)N2CCC(F)CC2)cnc1C(=O)NCC(O)C(F)(F)F (stereo not drawn) [Compound 195, 3-amino-5-[(4-fluoropiperidin-1-yl)sulfonyl]-N-(3,3,3-trifluoro-2-hydroxypropyl)pyridine-2-carboxamide] | 98.7% | 26.2 nM | 61.8% | 1250 nM
12 | CN(C)C(=O)C1CN(C(=O)c2ncc(S(=O)(=O)c3ccc(OC(F)(F)F)cc3)cc2N)C1 [Compound 62, 1-[(3-amino-5-{[4-(trifluoromethoxy)phenyl]sulfonyl}pyridin-2-yl)carbonyl]-N,N-dimethylazetidine-3-carboxamide] | 91.8% | 140 nM | 49.3% | 1390 nM
13 | Nc1cc(S(=O)(=O)c2ccc(OC(F)(F)F)cc2)cnc1C(=O)N1CCC(F)(F)C1 [Compound 203, (3-amino-5-{[4-(trifluoromethoxy)phenyl]sulfonyl}pyridin-2-yl)(3,3-difluoropyrrolidin-1-yl)methanone] | 92.6% | 47.3 nM | 57.3% | 1270 nM
14 | CC1CCN(S(=O)(=O)c2cnc(C(=O)NCC(O)C(F)(F)F)c(N)c2)CC1 (stereo not drawn) [Compound 184, 3-amino-5-[(4-methylpiperidin-1-yl)sulfonyl]-N-(3,3,3-trifluoro-2-hydroxypropyl)pyridine-2-carboxamide] | 111.0% | 6.9 nM | 66.4% | 392 nM
15 | CC(C)(O)CNC(=O)c1ncc(S(=O)(=O)c2ccc(F)cc2)cc1N [Compound 10, 3-amino-5-[(4-fluorophenyl)sulfonyl]-N-(2-hydroxy-2-methylpropyl)pyridine-2-carboxamide] | 106.4% | 148 nM | 52.2% | > 3330 nM
16 | CC(C)NC(=O)CNC(=O)c1ncc(S(=O)(=O)c2ccc(OC(F)(F)F)cc2F)cc1N [Compound 135, 3-amino-5-{[2-fluoro-4-(trifluoromethoxy)phenyl]sulfonyl}-N-[2-oxo-2-(propan-2-ylamino)ethyl]pyridine-2-carboxamide] | 108.7% | 8.5 nM | 43.5% | 5770 nM
17 | CN1CC(NC(=O)c2ncc(S(=O)(=O)c3ccc(OC(F)(F)F)cc3)cc2N)C1 [Compound 210, 3-amino-N-(1-methylazetidin-3-yl)-5-{[4-(trifluoromethoxy)phenyl]sulfonyl}pyridine-2-carboxamide] | 44.6% | > 667 nM | 5.8% | > 10000 nM
18 | CC1(C)CN(C(=O)c2ncc(S(=O)(=O)c3ccc(C(F)(F)F)cc3F)cc2N)C1 [Compound 111, (3-amino-5-{[2-fluoro-4-(trifluoromethyl)phenyl]sulfonyl}pyridin-2-yl)(3,3-dimethylazetidin-1-yl)methanone] | 103.2% | 22.6 nM | 99.2% | 851 nM
19 | Nc1cc(S(=O)(=O)c2ccc(OC(F)(F)F)cc2F)cnc1C(=O)N1CC(O)(C(F)(F)F)C1 [Compound 173, (3-amino-5-{[2-fluoro-4-(trifluoromethoxy)phenyl]sulfonyl}pyridin-2-yl)[3-hydroxy-3-(trifluoromethyl)azetidin-1-yl]methanone] | 98.3% | 2.6 nM | 47.6% | 181 nM
20 | CC(C)COCC(O)CNC(=O)c1ncc(S(=O)(=O)c2ccc(C(F)(F)F)cc2F)cc1N (stereo not drawn) [Compound 170, 3-amino-5-{[2-fluoro-4-(trifluoromethyl)phenyl]sulfonyl}-N-[2-hydroxy-3-(2-methylpropoxy)propyl]pyridine-2-carboxamide] | 108.6% | 6.6 nM | 82.5% | 251 nM
21 | COCC1(C)CN(C(=O)c2ncc(S(=O)(=O)c3ccc(C(F)(F)F)cc3)cc2N)C1 [Compound 232, (3-amino-5-{[4-(trifluoromethyl)phenyl]sulfonyl}pyridin-2-yl)[3-(methoxymethyl)-3-methylazetidin-1-yl]methanone] | 94.5% | 68.4 nM | 66.0% | 1490 nM
22 | CC1(C)CN(S(=O)(=O)c2cnc(C(=O)NCC(O)C(F)(F)F)c(N)c2)C1 (stereo not drawn) [Compound 199, 3-amino-5-[(3,3-dimethylazetidin-1-yl)sulfonyl]-N-(3,3,3-trifluoro-2-hydroxypropyl)pyridine-2-carboxamide] | 114.1% | 21.6 nM | 65.0% | 1430 nM

From patent publication US10047051B2, “Substituted pyridines and method of use” (AbbVie S.á{acute over (.)}r.l., priority 2015, dated 2018)
